Blank lines part the entries; values can stand above or below the compound they belong to.
Tests used:
[1] = test system: XYLT2 mRNA expression; assay: XYLT2 mRNA expression in NHDFs by qRT-PCR; format: cell-based, human; settings: TGF-β1 (5 μg/L) supplementation, 48 h
Description: (§1) A former established cell culture model was utilized to investigate the effect of putative XT-I inhibitors on NHDFs. The inhibition studies were carried out with final inhibitor concentrations of 0.5, 1.0, 2.0 or 4.0 μM diluted in fully supplemented DMEM. In brief, unless otherwise stated, NHDFs were cultivated with a low density of 50 cells per mm^2 on a hard tissue culture substrate (100 × 20 mm dish) in fully supplemented DMEM with or without additional TGF-β1 (5 μg/L) for 24 h, promoting their transdifferentiation into proto-myofibroblasts. Thereafter, cells were treated with celastrol or amphotericin B in the presence or absence of TGF-β1 (5 μg/L) for an additional 48 h. Negative controls treated with solvent only were included for every sampling time. The final DMSO content of 0.04% (v/v) was kept constant in all inhibition experiments.
(§2) The RNA extraction from cell lysates and cDNA synthesis for mRNA and miRNA expression analysis were performed as described previously.
(§3) Quantitative real-time polymerase chain reaction (qRT-PCR) analysis using a LightCycler 480 Instrument II system (Roche, Basel, Swiss) was performed as previously described. The qRT-PCR experiments were conducted with three biological and three technical replicates per donor-derived primary cell culture, unless otherwise stated. The intron-spanning primer sequences used are listed in [7] and Table 1. The geometric mean of the expression levels of the housekeeping genes SDHA, RPL13A and B2M were calculated for expression normalization. The relative target gene mRNA expressions were determined by the ΔΔCT method considering the PCR efficiency. All normalized gene expression levels shown were referred to the respective target gene expression of one primary cell culture sample for the relative comparison of multiple biological samples per experiment and figures.

[2] = test system: XYLT1 mRNA expression; assay: XYLT1 mRNA expression in NHDFs by qRT-PCR; format: cell-based, human; settings: TGF-β1 5 μg/L, 48 h
Description: as §1, with “experiments. […]” for “experiments.”
as §2, §3

[3] = test system: miRNA-21; assay: miRNA-21 expression in NHDFs, TaqMan advanced miRNA assay; format: cell-based, human; settings: TGF-β1 5 µg/L, 48 h, serum-starved NHDFs
Description: as §2
The TaqMan advanced miRNA Assay (Thermo Fisher Scientific; Waltham, Massachusetts, United States) was performed, according to the manufacturer’s instructions, for the miRNA expression analyses. The primer assays miRNA-21 (477975_mir) and miRNA-191 (477952_mir) were used. The expression level of miRNA-21 determined was normalized to internal housekeeping gene expression of miRNA-191 via the ΔΔCT method.

[4] = test system: SMAD7 mRNA expression; assay: SMAD7 mRNA expression in NHDFs by qRT-PCR; format: cell-based, human; settings: TGF-β1 5 μg/L, 48 h
Description: as §1, with “experiments. […]” for “experiments.”
(§4) Quantitative real-time polymerase chain reaction (qRT-PCR) analysis using a LightCycler 480 Instrument II system (Roche, Basel, Swiss) was performed as previously described. […] The geometric mean of the expression levels of the housekeeping genes SDHA, RPL13A and B2M were calculated for expression normalization. The relative target gene mRNA expressions were determined by the ΔΔCT method considering the PCR efficiency. […]

[5] = test system: TGFB1 mRNA expression; assay: TGFB1 mRNA expression in NHDFs by qRT-PCR; format: cell-based, human; settings: TGF-β1 5 μg/L, 48 h
Description: as §1, §2, §4

[6] = biological target: T1, recombinant human XT-I (Homo sapiens, UniProt Q86Y38); assay: NP library inhibitor screening, UPLC/ESI-MS/MS XT-I assay; format: biochemical; settings: Table S1; 50 μM inhibitor; relative to negative control containing DMSO; technical duplicates
T1 sequence (Q86Y38 252-959 limits assumed): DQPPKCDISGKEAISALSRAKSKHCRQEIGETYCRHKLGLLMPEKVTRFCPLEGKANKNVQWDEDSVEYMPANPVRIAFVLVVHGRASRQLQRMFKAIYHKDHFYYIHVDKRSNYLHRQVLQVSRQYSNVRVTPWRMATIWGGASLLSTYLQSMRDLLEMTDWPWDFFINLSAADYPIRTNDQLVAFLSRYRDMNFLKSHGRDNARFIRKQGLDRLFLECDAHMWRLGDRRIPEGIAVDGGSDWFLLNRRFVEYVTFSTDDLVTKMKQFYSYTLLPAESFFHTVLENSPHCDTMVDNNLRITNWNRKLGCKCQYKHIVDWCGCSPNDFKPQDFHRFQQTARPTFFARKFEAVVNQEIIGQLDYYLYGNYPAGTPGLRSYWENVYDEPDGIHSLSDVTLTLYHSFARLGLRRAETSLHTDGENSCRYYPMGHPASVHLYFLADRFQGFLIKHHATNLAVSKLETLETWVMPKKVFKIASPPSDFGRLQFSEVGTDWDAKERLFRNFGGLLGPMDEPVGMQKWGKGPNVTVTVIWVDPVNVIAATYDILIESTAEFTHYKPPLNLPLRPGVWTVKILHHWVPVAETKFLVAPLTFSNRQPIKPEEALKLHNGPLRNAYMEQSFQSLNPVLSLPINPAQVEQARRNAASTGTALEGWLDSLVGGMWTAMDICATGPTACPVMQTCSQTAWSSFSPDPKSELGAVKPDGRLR

Compound: TGF-β1: Recombinant human TGF-β1, pro-fibrotic mediator used to stimulate fibroblasts
XYLT2 mRNA expression level [1]: unaffected
increase in XYLT1 mRNA expression relative to untreated control ([2]; Figure 5A–D): 3.7 ± 0.3 fold
increase in XYLT1 mRNA expression relative to untreated control ([2]; Figure 5E): 4.6 ± 0.2 fold
miRNA-21 expression relative to untreated [3]: 2.5 ± 0.2 fold
SMAD7 mRNA expression relative to control [4]: 1.8 ± 0.2 fold
TGFB1 mRNA expression (autoinduction) relative to control [5]: 1.1 ± 0.08 fold

remaining activity at 50 µM [6]: 72%
Compound: C=CC1=C(C(=O)O)N2C(=O)[C@@H](NC(=O)/C(=N\O)c3csc(N)n3)[C@H]2SC1 [Compound 49, Cefdinir]

remaining activity at 50 µM [6]: 82%
Compound: CCC(C)(C)C(=O)O[C@H]1C[C@@H](C)C=C2C=C[C@H](C)[C@H](CC[C@@H]3C[C@@H](O)CC(=O)O3)[C@H]21 [Compound 31, Simvastatin]

remaining activity at 50 µM [6]: 112%
Compound: CO[C@H]1/C=C/O[C@@]2(C)Oc3c(C)c(O)c4c(c3C2=O)C2=NC3(CCN(CC(C)C)CC3)NC2=C(NC(=O)/C(C)=C\C=C\[C@H](C)[C@H](O)[C@@H](C)[C@@H](O)[C@@H](C)[C@H](OC(C)=O)[C@@H]1C)C4=O [Compound 8, Rifabutin]

Reference: paper PMC7589200, “Identification of Putative Non-Substrate-Based XT-I Inhibitors by Natural Product Library Screening” (Biomolecules, 2020)
